For test [1], the target named is T1, CXCR7 receptor (Homo sapiens (Human), UniProt P25106). Kind of test: Serum Binding Analysis: displacement of 125I-labeled SDF-1 from CXCR7 in 100% human serum. Particulars: 125I SDF-1 displacement in 100% human serum, MCF-7 and/or MDA-MB-435S CXCR7 transfected cells, 3 hrs at 4° C.; read-out: Avg Ser IC50. The procedure:
(§1) The compounds were combined with cells expressing the CXCR7 receptor (e.g., MCF cells or cells transfected to express CXCR7) in the presence of the 125 I-labeled SDF-1 chemokine as detailed in Determination of IC50 values. Reagents and Cells (see below). The ability of the compounds to displace the labeled chemokine from the CXCR7 receptor sites at multiple concentrations was then determined with the screening process.
In Table 1, Avg Bind IC50 refers to the Buffer Binding Analysis described below, while Avg Ser IC50 refers to the Serum Binding Analysis described below. All compounds were prepared as described in the Examples above, or by related methods substituting readily available starting materials.
(§2) ^125I-labeled SDF-1 was purchased from Perkin-Elmer Life Sciences, Inc. (Boston, Mass.). The MCF-7 (adenocarcinoma; mammary gland) cell line was obtained from the American Type Culture Collection (ATCC, Manassas, Va.) or and was cultured in DMEM (Mediatech, Herndon, Va.) supplemented with 10% fetal bovine serum (FBS) (HyClone Logan, Utah) and bovine insulin (0.01 mg/mL) (Sigma. St. Louis, Mo.) at 37° C. in a humidified incubator at a 5% CO2/air mixture. CXCR7 transfected MDA-MB-435S were produced as described below. MDA-MB-435S human breast cancer line, was purchased from ATCC, and cultured in DMEM/10% FBS medium. The complete coding sequence of the gene encoding CXCR7 (a.k.a. CCXCKR2, hRDC1), was isolated from MCF-7 cells using μMACs mRNA isolation kit (Miltenyi Biotec, Auburn, Calif.). DNA contamination was removed by DNase digestion via RNeasy columns (Qiagen, Inc., Valencia, Calif.) and cDNA was generated using GeneAmp RNA PCR Core Kit (Applied Biosystems, Foster City. Calif.). PCR of cDNA samples was performed using Taq PCR Master Mix kit (Qiagen. Inc.) and hRDC1 primers harboring 5′ and 3′ Not I sites (hRDC1F 5′ […]-3, hRDC1R 5′-[…]-3′) Not I digested PCR product was ligated into Not I digested pcDNA3.1(+)(Invitrogen, Carlsbad, Calif.) and screened for orientation and sequence confirmed. Plasmid DNA was then isolated from overnight bacterial cultures by Maxiprep (Qiagen, Inc.). Plasmid DNA (10 μg) was added to MDA-MB-435s cells and cells were electroporated (0.22 kV, 960 uF) via Gene Pulser (Biorad laboratories, Hercules, Calif.). 48 hr post-electroporation, cells were transferred to selection medium (600 ug/ml G418).
In order to more properly assess the binding efficacy of the compounds, radioligand binding assays were carried out in the presence of 100% human serum to more accurately reflect the in vivo environment. […] Target compounds were tested to determine their ability to bind with CXCR7 sites on MCF-7 and/or MDA-MB-435S CXCR7 transfected cells. Efficiency-maxim/zed radioligand binding using filtration protocols as described in Dairaghi D J, et al., HHV8-encoded vMIP-I selectively engages chemokine receptor CCR5. Agonist and antagonist profiles of viral chemokines., J. Biol. Chem. 1999 Jul. 30; 274(31): 21569-74 and Gosling J, et al., Cutting edge: identification of a novel chemokine receptor that binds dendritic cell- and T cell-active chemokines including ELC, SLC, and TECK, J. Immunol. 2000 Mar. 15; 164(6):2851-6 was used.
In these assays, MCF-7 and/or MDA-MB-435S cells were interrogated with the target compounds and the ability of these compounds to displace 125 I radiolabeled SDF-1 was assessed using the protocol described in Dairaghi and Gosling. The target compounds were added to the plate to the indicated concentration followed by addition of cells and radiolabeled chemokine (125I SDF-1), both in the following medium (human AB serum with 10 mM HEPES added to stabilize at pH 7.4). All assays were then incubated for 3 hrs at 4° C. with gentle agitation.
In general terms: Loss of bound radioactivity is the signal in a displacement assay; it reports binding, not function.

Test [2] has as its target T1, CXCR7 receptor. Put plainly: Buffer Binding Analysis: displacement of 125I-labeled SDF-1 from CXCR7. Particulars: 125I SDF-1 displacement, buffer binding medium, MCF-7 and/or MDA-MB-435S CXCR7 transfected cells, 3 hr at 4° C.; read-out: Avg Bind IC50. The procedure: as §1
Compounds that were deemed effective modulators were able to displace at least 50% of the SDF-1 from the CXCR7 receptor at concentrations at or below 15 micromolar (μM) but >2500 nM (+); and more preferably at concentrations from >500 nM to ≤2500 nM (++). At present, especially preferred compounds can displace at least 50% of the SDF-1 from the CXCR7 receptor at concentrations at or below 500 nM (+++). Exemplary compounds that met these criteria are reproduced in Table 1 and the Examples above. In Table 1, Avg Bind IC50 refers to the Buffer Binding Analysis described below, while Avg Ser IC50 refers to the Serum Binding Analysis described below. All compounds were prepared as described in the Examples above, or by related methods substituting readily available starting materials.
as §2
Target compounds can be tested to determine their ability to bind with CXCR7 sites on MCF-7 and/or MDA-MB-435S CXCR7 transfected cells. Efficiency-maxim/zed radioligand binding using filtration protocols as described in Dairaghi D J, et al., HHV8-encoded vMIP-I selectively engages chemokine receptor CCR5. Agonist and antagonist profiles of viral chemokines., J. Biol. Chem. 1999 Jul. 30; 274(31): 21569-74 and Gosling J. et al., Cutting edge: identification of a novel chemokine receptor that binds dendritic cell-and T cell-active chemokines including ELC. SLC, and TECK., J. Immunol. 2000 Mar. 15; 164(6):2851-6 was used.
In these assays, MCF-7 and/or MDA-MB-435S cells are interrogated with the target compounds and the ability of these compounds to displace ^125I radiolabeled SDF-1 assessed using the protocol described in Dairaghi and Gosling. […]

Where only a bound is given, the exact number is not on record here.

T1 sequence (P25106 whole entry): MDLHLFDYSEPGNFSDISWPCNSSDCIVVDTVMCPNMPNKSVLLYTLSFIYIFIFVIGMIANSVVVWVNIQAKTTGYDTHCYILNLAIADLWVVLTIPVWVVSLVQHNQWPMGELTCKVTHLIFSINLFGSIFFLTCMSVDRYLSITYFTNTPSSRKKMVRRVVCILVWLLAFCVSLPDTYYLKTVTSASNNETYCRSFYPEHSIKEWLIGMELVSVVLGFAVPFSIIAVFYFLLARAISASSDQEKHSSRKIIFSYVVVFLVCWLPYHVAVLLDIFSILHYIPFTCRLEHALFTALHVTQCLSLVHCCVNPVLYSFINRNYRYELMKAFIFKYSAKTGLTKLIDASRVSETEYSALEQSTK

As usually defined, the IC50 is the concentration that gives 50% inhibition. For `CC1(O)CCN(c2nc(C(=O)N[C@H]3CCN(c4nccn5cccc45)C3)cs2)CC1` [Compound 1.055], the IC50 on CXCR7 receptor [1] was no more than 0.5 µM.
The same measure, in the same setting: the value for `CC1(O)CCN(c2nc(C(=O)N[C@H]3CCN(c4nccn5ccnc45)C3)cs2)CC1` [Compound 1.056] was 0.5 to 2.5 µM; that for `Cc1ccccc1-n1ccc(C(=O)N[C@H]2CCN(c3nccn4ccnc34)C2)n1` [Compound 1.057] was no more than 0.5 µM; that for `O=C(NC1(CO)CCN(c2nccn3ccnc23)C1)c1csc(N2CCC(O)CC2)n1` (stereo not drawn) [Compound 1.058] was no more than 0.5 µM.
For the compound `O=C(NC1(CO)CCN(c2nccn3ccnc23)C1)c1ccn(-c2ccc(F)cc2)n1` (stereo not drawn) [Compound 1.059], the concentration for half-maximal inhibition (IC50) on CXCR7 receptor [1] was no more than 0.5 µM.
Consider `CC(C)c1cnc(C(=O)NC2(CO)CCN(c3nccn4cccc34)C2)nc1` (stereo not drawn) [Compound 1.060], for which the IC50 on CXCR7 receptor [1] was no more than 0.5 µM.
On the same count and under the same terms, under `CC(C)c1cnc(C(=O)N[C@H]2CCN(c3nccn4cnnc34)C2)nc1` [Compound 1.061] stands 0.5 to 2.5 µM; under `O=C(NC1CN(c2nccn3cccc23)C[C@@H]1O)c1ccn(-c2ccc(F)cc2)n1` (stereo partly drawn) [Compound 1.062], no more than 0.5 µM.
`Cc1cnc(C(=O)N[C@H]2CCN(c3nccn4cccc34)C2)nc1` [Compound 1.063]: the 50% inhibitory concentration (IC50) at CXCR7 receptor [1] is 0.5 to 2.5 µM.
Take `CC(C)c1cnc(C(=O)N[C@H]2CCN(c3nccn4ccnc34)C2)nc1` [Compound 1.064]: the IC50 on CXCR7 receptor [1] is no more than 0.5 µM.
On the same count and under the same terms, under `CCc1cnc(C(=O)N[C@H]2CCN(c3nccn4cccc34)C2)nc1` [Compound 1.065] stands no more than 0.5 µM; under `O=C(N[C@H]1CCN(c2nccn3cnnc23)C1)c1csc(-c2ccccc2)n1` [Compound 1.066], no more than 0.5 µM; under `O=C(N[C@H]1CCN(c2nccn3ncnc23)C1)c1ccn(-c2ccc(F)cc2)n1` [Compound 1.067], no more than 0.5 µM.
Still for that read-out and setting: under `O=C(N[C@H]1CCN(c2nccn3cnnc23)C1)c1coc(-c2ccccc2)n1` [Compound 1.069] stands no more than 0.5 µM; under `O=C(N[C@H]1CCN(c2nccn3ccnc23)C1)c1coc(-c2ccccc2)n1` [Compound 1.070], no more than 0.5 µM; under `O=C(N[C@H]1CCN(c2nccn3cccc23)C1)c1ncc(C2CC2)cn1` [Compound 1.071], no more than 0.5 µM.
On the same count and under the same terms, the value for `O=C(NC1(CO)CCN(c2nccn3cccc23)C1)c1csc(N2CCC(O)CC2)n1` (stereo not drawn) [Compound 1.072] was no more than 0.5 µM; that for `O=C(NC1(CO)CCN(c2nccn3cccc23)C1)c1ccn(-c2ccc(F)cc2)n1` (stereo not drawn) [Compound 1.073] was no more than 0.5 µM; that for `O=C(NC1(CO)CCN(c2nccn3cccc23)C1)c1ccn(-c2ccc(Cl)cc2)n1` (stereo not drawn) [Compound 1.074] was no more than 0.5 µM.
`O=C(N[C@H]1CCN(c2nccn3ccnc23)C1)c1cnc(N2CCC(O)CC2)cn1` [Compound 1.075]: the IC50 was in the range of 0.5 to 2.5 µM on CXCR7 receptor [2] and 2.5 to 15 µM on CXCR7 receptor [1].
Take `O=C(N[C@H]1CCN(c2nccn3cccc23)C1)c1ncc(-c2ccc(F)cc2)cn1` [Compound 1.076]: the concentration for half-maximal inhibition (IC50) on CXCR7 receptor [2] and at CXCR7 receptor [1] was no more than 0.5 µM in each case.
Consider `CC(C)c1cnc(C(=O)N[C@H]2CCN(c3nccn4cccc34)C2)nc1` [Compound 1.077], for which the IC50 on CXCR7 receptor [2] and at CXCR7 receptor [1] was no more than 0.5 µM in each case.
For `O=C(N[C@H]1CCN(c2nccn3cnnc23)C1)c1csc(N2CCC(O)CC2)n1` [Compound 1.078], the half-inhibitory concentration (IC50) on CXCR7 receptor [2] and at CXCR7 receptor [1] was no more than 0.5 µM in each case.
Take `O=C(N[C@H]1CCN(c2nccn3ccnc23)C1)c1csc(N2CCC(O)CC2)n1` [Compound 1.079]: the IC50 on CXCR7 receptor [2] and on CXCR7 receptor [1] was no more than 0.5 µM in each case.
For `Cc1ccccc1-c1nc(C(=O)N[C@H]2CCN(c3nccn4cccc34)C2)co1` [Compound 1.080], the IC50 on CXCR7 receptor [2] was no more than 0.5 µM; at CXCR7 receptor [1] it was 0.5 to 2.5 µM.
Turning to `O=C(N[C@H]1CCN(c2nccn3cccc23)C1)c1ccn(-c2ccc(Cl)cn2)n1` [Compound 1.081], the IC50 at CXCR7 receptor [2] was no more than 0.5 µM; at CXCR7 receptor [1], 0.5 to 2.5 µM.
For `O=C(N[C@H]1CCN(c2nccn3cccc23)C1)c1noc(C2CCOCC2)n1` [Compound 1.082], in that order: no more than 0.5 µM and 0.5 to 2.5 µM.
Turning to `O=C(N[C@H]1CCN(c2nccn3cccc23)C1)c1nnc(-c2ccccc2)[nH]1` [Compound 1.083], the IC50 at CXCR7 receptor [2] was no more than 0.5 µM; at CXCR7 receptor [1], 0.5 to 2.5 µM.
`O=C(N[C@H]1CCN(c2nccn3cnnc23)C1)c1ccn(-c2ccc(F)cc2)n1` [Compound 1.084]: the IC50 on CXCR7 receptor [2] and at CXCR7 receptor [1] was no more than 0.5 µM throughout.
Consider `Cc1ccc2nc(C(=O)N[C@H]3CCN(c4nccn5cccc45)C3)ncc2c1` [Compound 1.085], for which the IC50 at CXCR7 receptor [2] and at CXCR7 receptor [1] was no more than 0.5 µM throughout.
With `O=C(N[C@H]1CCN(c2nccn3ccnc23)C1)c1ccn(C2CCOCC2)n1` [Compound 1.086], the IC50 on CXCR7 receptor [2] and at CXCR7 receptor [1] was 0.5 to 2.5 µM throughout.
On to `O=C(N[C@H]1CCN(c2nccn3cnnc23)C1)c1ccn(C2CCOCC2)n1` [Compound 1.087], for which the 50% inhibitory concentration (IC50) on CXCR7 receptor [2] is 2.5 to 15 µM; on CXCR7 receptor [1] it was 0.5 to 2.5 µM.
As for `O=C(N[C@H]1CCN(c2nccn3cccc23)C1)c1ccn(C2CCOCC2)n1` [Compound 1.088], the IC50 at CXCR7 receptor [2] and at CXCR7 receptor [1] was no more than 0.5 µM in each case.
Regarding `O=C(N[C@H]1CCN(c2nccn3cnnc23)C1)c1ncn(-c2ccc(F)cc2)n1` [Compound 1.089], the IC50 at CXCR7 receptor [2] and on CXCR7 receptor [1] was no more than 0.5 µM in each case.
Consider `O=C(N[C@H]1CCN(c2nccn3ccnc23)C1)c1ncn(-c2ccccc2)n1` [Compound 1.091], for which the half-maximal inhibitory concentration (IC50) at CXCR7 receptor [2] and on CXCR7 receptor [1] was no more than 0.5 µM in each case.
Turning to `O=C(N[C@H]1CCN(c2nccn3ccnc23)C1)c1ccn(-c2ccc(F)cc2)n1` [Compound 1.092], the 50% inhibitory concentration (IC50) on CXCR7 receptor [2] and on CXCR7 receptor [1] was no more than 0.5 µM in each case.
`O=C(N[C@H]1CCN(c2nccn3cccc23)C1)c1ncc(-c2ccccc2)cn1` [Compound 1.093]: the IC50 on CXCR7 receptor [2] and on CXCR7 receptor [1] was no more than 0.5 µM in each case.
Regarding `Cc1cc(Cl)ccc1-n1ccc(C(=O)N[C@H]2CCN(c3nccn4cccc34)C2)n1` [Compound 1.094], the IC50 on CXCR7 receptor [2] and on CXCR7 receptor [1] was no more than 0.5 µM throughout.

These data come from patent publication US10287292B2, “CXCR7 antagonists” (CHEMOCENTRYX, INC., priority 2012, dated 2019).
